Reference: patent US20260167623A1 (NIKANG THERAPEUTICS, INC., priority 2022, published 2026)

Experiments:
CDK2 [1] = target: T1, CDK2 (Homo sapiens, UniProt P24941); test: Inhibition of CDK2: phospho-Rb (S807/811) HTRF measurement in OVCAR3 cells, 24 h; assay type: cell-based; conditions: 24 h compound treatment, read-out: pRB_OVCAR3_24h
T1 construct: High-Throughput Measurement of Cellular Endogenous CDK2; endogenous in cells; host or cells: OVCAR3
Summary of the method: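 IC50 came from a four-parameter fit of DMSO-normalized TR-FRET ratios (665/620 nm) reporting phospho-Rb S807/811. Lysates were taken from OVCAR3 cultures treated 24 h with compound (0.3 to 10,000 nM) and incubated 4 h at room temperature with the antibody pair.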

CDK2 [2] = target: T1, CDK2; test: High-throughput HTRF measurement of cellular endogenous CDK2 level (degradation, DC50/Dmax) in OVCAR3 cells, 6 h; assay type: cell-based; conditions: 6 h compound treatment, HTRF total CDK2, read-out: DC50_OVCAR3_6h
Summary of the method: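 DC50 and Dmax were derived by four-parameter logistic fit of the […] TR-FRET ratio, scaled between DMSO (0% degradation) and lysis buffer (100%) controls. The ratio came from an HTRF total-CDK2 sandwich immunoassay on lysates of OVCAR3 cells given 0.03–1,000 nM compound for 6 hours.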

Structure (SMILES)	IC50 (CDK2 [1]) [nM]	DC50 (CDK2 [2]) [nM]
Cn1nc(N2CCC(=O)NC2=O)c2ccc(C3CCN(CC4CCN(c5cc(S(=O)(=O)N6CCC(Nc7ncc(OC(F)F)cn7)CC6)ccc5C#N)CC4)CC3)c(F)c21 [Example 192, 4-((4-((5-(difluoromethoxy)pyrimidin-2-yl)amino)piperidin-1-yl)sulfonyl)-2-(4-((4-(3-(2,4-dioxotetrahydropyrimidin-1(2H)-yl)-7-fluoro-1-methyl-1H-indazol-6-yl)piperidin-1-yl)methyl)piperidin-1-yl)benzonitrile]	1 to 100	1 to 10
Cn1c(=O)n(C2CCC(=O)NC2=O)c2ccc(C3CCN(CC4CCN(c5cccc(S(=O)(=O)N6CCC(Nc7ncc(C(F)(F)F)cn7)CC6)c5)CC4)CC3)cc21 (stereo not shown) [Example 177, 3-(3-methyl-2-oxo-5-(1-((1-(3-((4-((5-(trifluoromethyl)pyrimidin-2-yl)amino)piperidin-1-yl)sulfonyl)phenyl)piperidin-4-yl)methyl)piperidin-4-yl)-2,3-dihydro-1H-benzo[d]imidazol-1-yl)piperidine-2,6-dione]	1 to 100	1 to 10
C[C@@H]1CN(CC2CCN(c3cccc(S(=O)(=O)N4CCC(Nc5ncc(Cl)cn5)CC4)c3)CC2)CCN1c1ccc2c(N3CCC(=O)NC3=O)nn(C)c2c1 [Example 116, (R)-1-(6-(4-((1-(3-((4-((5-chloropyrimidin-2-yl)amino)piperidin-1-yl)sulfonyl)phenyl)-piperidin-4-yl)methyl)-2-methylpiperazin-1-yl)-1-methyl-1H-indazol-3-yl)dihydropyrimidine-2,4(1H,3H)-dione]	1 to 100	10 to 100
Cn1nc(N2CCC(=O)NC2=O)c2cc(F)c(C3CCN(Cc4cccc(S(=O)(=O)N5CCC(Nc6ncc(OC(F)F)cn6)CC5)c4)CC3)cc21 [Example 77, 1-(6-(1-(3-((4-((5-(difluoromethoxy)-pyrimidin-2-yl)amino)piperidin-1-yl)sulfonyl)benzyl)piperidin-4-yl)-5-fluoro-1-methyl-1H-indazol-3-yl)dihydropyrimidine-2,4(1H,3H)-dione]	1 to 100	1 to 10
CC(c1cccc(S(=O)(=O)N2CCC(Nc3ncc(Cl)cn3)CC2)c1)N1CCC(c2ccc3c(N4CCC(=O)NC4=O)nn(C)c3c2)CC1 (stereo not shown) [Example 38]	100 to 500	10 to 100
Cn1nc(N2CCC(=O)NC2=O)c2cc(F)c(C3CCN(Cc4cccc(S(=O)(=O)N5CCC(Nc6ncc(Cl)cn6)CC5)c4)CC3)cc21 [Example 23, 1-(6-(1-(3-((4-((5-chloropyrimidin-2-yl)amino)piperidin-1-yl)sulfonyl)benzyl)-piperidin-4-yl)-5-fluoro-1-methyl-1H-indazol-3-yl)dihydropyrimidine-2,4(1H,3H)-dione]	100 to 500	10 to 100
O=C1CCC(c2csc3cc(C4CCN(CC5CCN(c6cccc(S(=O)(=O)N7CCC(Nc8ncc(C(F)(F)F)cn8)CC7)c6)CC5)CC4)ccc23)C(=O)N1 (stereo not shown) [Example 250, 3-(6-(1-((1-(3-((4-((5-(trifluoromethyl)pyrimidin-2-yl)amino)piperidin-1-yl)sulfonyl)phenyl)piperidin-4-yl)methyl)piperidin-4-yl)benzo[b]thiophen-3-yl)piperidine-2,6-dione]	1 to 100	10 to 100
Cn1nc(N2CCC(=O)NC2=O)c2ccc(C3CCN(CC4CCN(c5cccc(S(=O)(=O)N6CCC(Nc7ncc(Cl)cn7)CC6)c5)CC4)CC3)c(Cl)c21 [Example 71, 1-(7-chloro-6-(1-((1-(3-((4-((5-chloro-pyrimidin-2-yl)amino)piperidin-1-yl)sulfonyl)phenyl)piperidin-4-yl)methyl)-piperidin-4-yl)-1-methyl-1H-indazol-3-yl)dihydropyrimidine-2,4(1H,3H)-dione]	1 to 100	1 to 10
Cn1nc(N2CCC(=O)NC2=O)c2ccc(C3CCN(CC4CCN(c5cc(F)cc(S(=O)(=O)N6CCC(Nc7ncc(Cl)cn7)CC6)c5)CC4)CC3)cc21 [Example 147, 1-(6-(1-((1-(3-((4-((5-chloropyrimidin-2-yl)amino)piperidin-1-yl)sulfonyl)-5-fluorophenyl)piperidin-4-yl)methyl)piperidin-4-yl)-1-methyl-1H-indazol-3-yl)dihydropyrimidine-2,4(1H,3H)-dione]	1 to 100	1 to 10
CC(Cc1cccc(S(=O)(=O)N2CCC(Nc3ncc(C(F)(F)F)cn3)CC2)c1)CN1CCC(c2ccc3c(N4CCC(=O)NC4=O)nn(C)c3c2)CC1 (stereo not shown) [Example 29]	1 to 100	1 to 10
Cn1nc(N2CCC(=O)NC2=O)c2cc(F)c(C3CCN(CC4CCN(c5cc(S(=O)(=O)N6CCC(Nc7ncc(Cl)cn7)CC6)ccc5C#N)CC4)CC3)cc21 [Example 153, 4-((4-((5-chloropyrimidin-2-yl)amino)piperidin-1-yl)sulfonyl)-2-(4-((4-(3-(2,4-dioxotetrahydropyrimidin-1(2H)-yl)-5-fluoro-1-methyl-1H-indazol-6-yl)piperidin-1-yl)methyl)piperidin-1-yl)benzonitrile]	1 to 100	10 to 100
O=C1CCC(N2Cc3cc(N4CCC(CN5CCN(c6cccc(S(=O)(=O)N7CCC(Nc8ncc(Cl)cn8)CC7)c6)CC5)CC4)ccc3C2=O)C(=O)N1 (stereo not shown) [Example 247, 3-(5-(4-((4-(3-((4-((5-chloropyrimidin-2-yl)amino)piperidin-1-yl)sulfonyl)phenyl)piperazin-1-yl)methyl)piperidin-1-yl)-1-oxoisoindolin-2-yl)piperidine-2,6-dione]	1 to 100	10 to 100
Cn1nc(N2CCC(=O)NC2=O)c2ccc(C3CCN(CC4CCN(c5cc(S(=O)(=O)N6CCC(Nc7ncc(Cl)cn7)CC6)ccc5C#N)CC4)CC3)c(F)c21 [Example 150, 4-((4-((5-chloropyrimidin-2-yl)amino)piperidin-1-yl)sulfonyl)-2-(4-((4-(3-(2,4-dioxotetrahydropyrimidin-1(2H)-yl)-7-fluoro-1-methyl-1H-indazol-6-yl)piperidin-1-yl)methyl)piperidin-1-yl)benzonitrile]	1 to 100	10 to 100
O=C1CCC(N2Cc3cc(N4CCN(Cc5cccc(S(=O)(=O)N6CCC(Nc7ncc(C(F)(F)F)cn7)CC6)c5)CC4)ccc3C2=O)C(=O)N1 (stereo not shown) [Example 76, 3-(1-oxo-5-(4-(3-((4-((5-(trifluoromethyl)-pyrimidin-2-yl)amino)piperidin-1-yl)sulfonyl)benzyl)piperazin-1-yl)isoindolin-2-yl)piperidine-2,6-dione]	1 to 100	1 to 10

The remaining lines, values ahead:

IC50 (CDK2 [1]) [nM]	DC50 (CDK2 [2]) [nM]	Structure (SMILES)
1 to 100	10 to 100	Cn1nc(N2CCC(=O)NC2=O)c2ccc(C3CCN(CC4CCN(c5cccc(S(=O)(=O)N6CCC(Nc7ncc(OC(F)(F)F)cn7)CC6)c5)CC4)CC3)cc21 [Example 115, 1-(1-methyl-6-(1-((1-(3-((4-((5-(trifluoro-methoxy)pyrimidin-2-yl)amino)piperidin-1-yl)sulfonyl)phenyl)piperidin-4-yl)methyl)piperidin-4-yl)-1H-indazol-3-yl)dihydropyrimidine-2,4(1H,3H)-dione]
1 to 100	10 to 100	Cn1nc(N2CCC(=O)NC2=O)c2cc(F)c(C3CCN(CC4CCN(c5cccc(S(=O)(=O)N6CCC(Nc7ncc(C(F)(F)F)cn7)CC6)c5)CC4)CC3)cc21 [Example 100, 1-(5-fluoro-1-methyl-6-(1-((1-(3-((4-((5-(trifluoromethyl)pyrimidin-2-yl)amino)-piperidin-1-yl)sulfonyl)phenyl)piperidin-4-yl)methyl)piperidin-4-yl)-1H-indazol-3-yl)dihydropyrimidine-2,4(1H,3H)-dione]
1 to 100	1 to 10	Cn1c(=O)n(C2CCC(=O)NC2=O)c2cccc(C3CCN(Cc4cccc(S(=O)(=O)N5CCC(Nc6ncc(C(F)(F)F)cn6)CC5)c4)CC3)c21 (stereo not shown) [Example 83, 3-(3-methyl-2-oxo-4-(1-(3-((4-((5-(trifluoromethyl)pyrimidin-2-yl)amino)piperidin-1-yl)sulfonyl)benzyl)-piperidin-4-yl)-2,3-dihydro-1H-benzo[d]imidazol-1-yl)piperidine-2,6-dione]
1 to 100	1 to 10	Cn1c(=O)n(C2CCC(=O)NC2=O)c2cccc(N3CCN(CC4CCN(c5cc(S(=O)(=O)N6CCC(Nc7ncc(Cl)cn7)CC6)ccc5C#N)CC4)CC3)c21 (stereo not shown) [Example 203, 4-((4-((5-chloropyrimidin-2-yl)amino)piperidin-1-yl)sulfonyl)-2-(4-((4-(1-(2,6-dioxopiperidin-3-yl)-3-methyl-2-oxo-2,3-dihydro-1H-benzo[d]imidazol-4-yl)piperazin-1-yl)methyl)piperidin-1-yl)benzonitrile]
1 to 100	10 to 100	Cn1c(=O)n(C2CCC(=O)NC2=O)c2cccc(C3CCN(CC4CCN(c5cc(S(=O)(=O)N6CCC(Nc7ncc(Cl)cn7)CC6)ccc5C#N)CC4)CC3)c21 (stereo not shown) [Example 151, 4-((4-((5-chloropyrimidin-2-yl)amino)piperidin-1-yl)sulfonyl)-2-(4-((4-(1-(2,6-dioxopiperidin-3-yl)-3-methyl-2-oxo-2,3-dihydro-1H-benzo[d]imidazol-4-yl)piperidin-1-yl)methyl)piperidin-1-yl)benzonitrile]
1 to 100	1 to 10	Cn1nc(N2CCC(=O)NC2=O)c2ccc(C3CCN(Cc4ccc(S(=O)(=O)N5CCC(Nc6ncc(OC(F)F)cn6)CC5)cc4)CC3)cc21 [Example 241, 1-(6-(1-(4-((4-((5-(difluoromethoxy)pyrimidin-2-yl)amino)piperidin-1-yl)sulfonyl)benzyl)piperidin-4-yl)-1-methyl-1H-indazol-3-yl)dihydropyrimidine-2,4(1H,3H)-dione]
